According to ChEMBL document CHEMBL1153245, “A profile of the in vitro anti-tumor activity of imidazolium-based ionic liquids” (2010):

Columns and labels:
Assay type in all cases: functional
Malme-3M = assay: Anticancer activity against human MALME-3M cells assessed cell growth at 10 uM after 48 hrs by sulforhodamine B assay relative to control
HCT-15 = assay: Anticancer activity against human HCT15 cells assessed cell growth at 10 uM after 48 hrs by sulforhodamine B assay relative to control
SNB-19 = assay: Anticancer activity against human SNB19 cells assessed cell growth at 10 uM after 48 hrs by sulforhodamine B assay relative to control
HT-29 = assay: Anticancer activity against human HT-29 cells assessed cell growth at 10 uM after 48 hrs by sulforhodamine B assay relative to control
BT-549 = assay: Anticancer activity against human BT549 cells assessed cell growth at 10 uM after 48 hrs by sulforhodamine B assay relative to control
SK-MEL-28 = assay: Anticancer activity against human SK-MEL-28 cells assessed cell growth at 10 uM after 48 hrs by sulforhodamine B assay relative to control
NCI-H226 = assay: Anticancer activity against human NCI-H226 cells assessed cell growth at 10 uM after 48 hrs by sulforhodamine B assay relative to control
MCF7 = assay: Anticancer activity against human MCF7 cells assessed cell growth at 10 uM after 48 hrs by sulforhodamine B assay relative to control
UACC-257 = assay: Anticancer activity against human UACC257 cells assessed cell growth at 10 uM after 48 hrs by sulforhodamine B assay relative to control
U-251 = assay: Anticancer activity against human U251 cells assessed cell growth at 10 uM after 48 hrs by sulforhodamine B assay relative to control
MDA-MB-468 = assay: Anticancer activity against human MDA-MB-468 cells assessed cell growth at 10 uM after 48 hrs by sulforhodamine B assay relative to control
SK-MEL-5 = assay: Anticancer activity against human SK-MEL-5 cells assessed cell growth at 10 uM after 48 hrs by sulforhodamine B assay relative to control
SK-MEL-2 = assay: Anticancer activity against human SK-MEL-2 cells assessed cell growth at 10 uM after 48 hrs by sulforhodamine B assay relative to control
MDA-MB-435 = assay: Anticancer activity against human MDA-MB-435 cells assessed cell growth at 10 uM after 48 hrs by sulforhodamine B assay relative to control

| Structure (SMILES) | Activity (Malme-3M) | Activity (HCT-15) | Activity (SNB-19) | Activity (HT-29) | Activity (BT-549) | Activity (SK-MEL-28) | Activity (NCI-H226) | Activity (MCF7) | Activity (UACC-257) | Activity (U-251) | Activity (MDA-MB-468) | Activity (SK-MEL-5) | Activity (SK-MEL-2) | Activity (MDA-MB-435) |
| --- | --- | --- | --- | --- | --- | --- | --- | --- | --- | --- | --- | --- | --- | --- |
| CCCCCCCC[n+]1ccn(C)c1.F[B-](F)(F)F | 80.13% | 97.47% | 81.8% | 70.49% | 64.81% | 105.03% | 75.04% | 76.87% | 87.94% | 73.04% | 39.75% | 81.77% | 90.35% | 59.67% |
| CCCCCC[n+]1ccn(C)c1.O=S(=O)([N-]S(=O)(=O)C(F)(F)F)C(F)(F)F | 102.07% | 105.5% | 95.37% | 88.19% | 119.52% | 135.26% | 87.92% | 106.75% | 87.47% | 96.82% | 80.22% | 78.78% | 102.62% | 93.37% |
| Cn1cc[n+](CCO)c1.O=S(=O)([N-]S(=O)(=O)C(F)(F)F)C(F)(F)F | 121.81% | 90.93% | 93.36% | 112.28% | 114.11% | 125.37% | 101.7% | 105.11% | 93.35% | 91.58% | 108.29% | 100.98% | 97.37% | 116.12% |
| CCCCCCCC[n+]1ccn(C)c1.[Cl-] | 80.97% | 111.4% | 91.91% | 69.97% | 81.23% | 120.13% | 75.79% | 79.81% | 83.24% | 79.77% | 46.81% | 86.81% | 85.11% | 70.46% |
| CCCCCCCCOS(=O)(=O)[O-].CCCCCCCC[n+]1ccn(C)c1 | 80.15% | 107.62% | 82.22% | 67.62% | 67.86% | 112.15% | 74.07% | 75.57% | 78.7% | 71.96% | 38.15% | 74.87% | 83.39% | 55.5% |
